In patent US11013730B1, “Composition comprising selenazol or thiazalone derivatives and silver and method of treatment therewith” (Thioredoxin Systems AB, priority 2014, dated 2021):
Values after ≈ are worked out from the molar mass of the structure shown. Read-outs that look alike come from different tables or passages of the source.

How the values were obtained:
Mammalian TrxR = biological target: T1, Mammalian TrxR (Homo sapiens, UniProt Q16881); test: Kinetic parameters with mammalian TrxR; format: biochemical; conditions: sulphur analogues
T1 sequence (Q16881 151-649 limits assumed): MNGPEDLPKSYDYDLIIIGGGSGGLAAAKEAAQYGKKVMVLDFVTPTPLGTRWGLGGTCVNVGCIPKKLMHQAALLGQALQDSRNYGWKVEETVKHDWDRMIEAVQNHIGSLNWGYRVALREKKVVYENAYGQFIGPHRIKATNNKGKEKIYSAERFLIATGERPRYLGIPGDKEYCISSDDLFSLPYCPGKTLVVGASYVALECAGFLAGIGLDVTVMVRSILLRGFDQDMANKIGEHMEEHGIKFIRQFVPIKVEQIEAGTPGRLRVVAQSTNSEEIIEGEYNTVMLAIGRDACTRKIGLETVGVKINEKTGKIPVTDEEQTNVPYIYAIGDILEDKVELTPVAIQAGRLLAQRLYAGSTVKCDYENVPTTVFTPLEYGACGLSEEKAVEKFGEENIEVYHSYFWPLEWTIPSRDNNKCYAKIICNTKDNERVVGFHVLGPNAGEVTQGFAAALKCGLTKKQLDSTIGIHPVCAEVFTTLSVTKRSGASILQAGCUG

E. coli TrxR [1] = biological target: T2, E. coli TrxR (Escherichia coli, UniProt P0A9P4); test: Kinetic parameters (substrate) with E. coli TrxR; format: biochemical
T2 sequence (P0A9P4 whole entry): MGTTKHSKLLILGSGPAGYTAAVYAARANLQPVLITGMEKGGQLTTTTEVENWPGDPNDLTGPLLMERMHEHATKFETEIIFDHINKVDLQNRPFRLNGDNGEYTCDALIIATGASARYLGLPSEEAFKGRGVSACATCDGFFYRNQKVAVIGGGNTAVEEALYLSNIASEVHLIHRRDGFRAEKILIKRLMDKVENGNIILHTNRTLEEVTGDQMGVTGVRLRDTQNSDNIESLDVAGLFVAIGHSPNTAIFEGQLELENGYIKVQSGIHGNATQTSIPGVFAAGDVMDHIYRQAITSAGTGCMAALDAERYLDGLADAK

E. coli TrxR [2] = biological target: T2, E. coli TrxR; test: E. coli TrxR inhibition, thioredoxin dependent DTNB reduction assay; format: biochemical; conditions: for IC50: DTNB assay, 100 nM TrxR, 2 μM Trx, 240 μM NADPH, 1 mM DTNB, read-out: IC50 for E. coli TrxR
Procedure: Further we examined the effect of ebselen in the reduction of disulfide by E. coli Trx and TrxR using both DTNB and insulin as substrates.
All the benzisoselenazol-3(2H)-one and bisbenzisoselenazol-3(2H)-one derivatives were tested as potential E. coli TrxR inhibitors by standard DTNB assay. […] The reactions were started by adding 1 mM DTNB to the mixture of 100 nM TrxR, 2 μM Trx, 240 μM NADPH, and different concentration of inhibitor (1-40 μM). […] The reactions were started by adding 6 nM TrxR at room temperature. Inhibition constants (Ki) for all the compounds were measured from Dixon plot, which plots 1/v versus […], I=Inhibitor concentration).

recombinant rat TrxR = biological target: T3, recombinant rat TrxR (Rattus norvegicus, UniProt O89049); test: Inhibition of mammalian (recombinant rat) TrxR
T3 sequence (O89049 1-499): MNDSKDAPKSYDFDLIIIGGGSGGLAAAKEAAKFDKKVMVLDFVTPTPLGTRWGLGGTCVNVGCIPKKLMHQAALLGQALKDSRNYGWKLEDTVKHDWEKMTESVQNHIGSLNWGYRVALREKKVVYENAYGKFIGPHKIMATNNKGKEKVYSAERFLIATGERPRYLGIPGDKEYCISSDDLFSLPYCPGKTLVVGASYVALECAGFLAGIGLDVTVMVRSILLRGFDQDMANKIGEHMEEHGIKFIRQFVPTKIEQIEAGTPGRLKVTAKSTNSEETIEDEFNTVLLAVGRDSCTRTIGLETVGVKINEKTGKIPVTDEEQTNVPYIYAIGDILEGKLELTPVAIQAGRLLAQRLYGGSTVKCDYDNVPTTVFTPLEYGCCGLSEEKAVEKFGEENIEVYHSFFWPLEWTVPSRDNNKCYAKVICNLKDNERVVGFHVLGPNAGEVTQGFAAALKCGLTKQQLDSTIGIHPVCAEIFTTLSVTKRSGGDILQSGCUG

[3] = Glutathione peroxidase (GPx) activity of the compounds; format: biochemical; conditions: relative; EbSe 6 = 1
HEK 293T cells = HEK 293T cells growth (cytotoxicity); format: cell-based
H. pylori TrxR = H. pylori TrxR (Helicobacter pylori, UniProt P56431); test: H. pylori TrxR activity, insulin reduction assay; conditions: 4, 20, and 40 μM
Chain of H. pylori TrxR (P56431 whole entry): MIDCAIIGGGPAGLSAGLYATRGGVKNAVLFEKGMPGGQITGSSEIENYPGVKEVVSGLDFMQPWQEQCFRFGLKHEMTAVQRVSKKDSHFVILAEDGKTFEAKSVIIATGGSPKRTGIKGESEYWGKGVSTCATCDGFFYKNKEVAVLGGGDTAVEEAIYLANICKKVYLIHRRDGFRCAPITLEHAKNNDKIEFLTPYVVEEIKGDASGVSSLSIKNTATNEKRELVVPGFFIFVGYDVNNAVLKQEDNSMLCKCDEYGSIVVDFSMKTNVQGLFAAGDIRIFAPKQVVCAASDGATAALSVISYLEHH

E. coli = format: cell-based, Escherichia coli
H. pylori strains = test: MIC against H. pylori strains
Staphylococcus aureus = conditions: ref (10); cited from earlier work
Gor DHB4 E. coli = test: Inhibition of bacterial growth (MIC), Gor DHB4 E. coli; conditions: for MIC: Escherichia coli, DHB4E.COLI, read-out: MIC for Gor DHB4 E. coli
Source text: (§1) Here E. coli DHB4 strains wt, gshA^−, gor^−, oxyR^− were used as the model to test the antibiotics activity of these ebselen derivatives.

gshA^− DHB4 E. coli = test: Inhibition of bacterial growth (MIC), gshA^− DHB4 E. coli; conditions: for MIC: Escherichia coli, read-out: MIC for gshA^− DHB4 E. coli
Source text: as §1

wild type DHB4 E. coli = test: Inhibition of bacterial growth (MIC), wild type DHB4 E. coli; conditions: for MIC: Escherichia coli, DHB4E.COLI, read-out: MIC for wild type DHB4 E. coli
Source text: as §1

[4] = Dixon plot, 6 nM TrxR, Trx 1, 2 or 4 μM
[5] = Homo sapiens, HEK-293T; read-out: IG50 for HEK 293T
[6] = Dixon plot, 6 nM TrxR, Trx 1, 2 or 4 μM, read-out: Ki for E. coli TrxR

O=C(Nc1ccccc1)c1ccccc1SSc1ccccc1C(=O)Nc1ccccc1 [(EbS)2]
Km (Mammalian TrxR): 47 µM
kcat, mammalian TrxR (Mammalian TrxR): 25 s⁻¹
Km (E. coli TrxR [1]): 27.6 µM
kcat, E. coli TrxR (E. coli TrxR [1]): 1.67 s⁻¹

Cn1[se]c2ccccc2c1=O [EbSe 3]
IC50 (E. coli TrxR [2]): 15 µM
Ki for E. coli TrxR (E. coli TrxR [2]; [4]): Not detected
IC50 (recombinant rat TrxR): > 10 µM
Relative GPx activity [3]: 1.2
IC50 (HEK 293T cells; [5]): 100 µM

O=c1c2ccccc2sn1-c1ccccc1 [EbS]
inhibition of E. coli TrxR (in words) (E. coli TrxR [2]): not inhibitors
H. pylori TrxR activity (H. pylori TrxR): inhibited
Km (Mammalian TrxR): 2.5 µM
kcat, mammalian TrxR (Mammalian TrxR): 23.33 s⁻¹
enhancement of the toxicity of silver toward bacteria (E. coli): less enhancement
kcat, E. coli TrxR (E. coli TrxR [1]): 11.7 s⁻¹
MIC (H. pylori strains; NCTC11637 strain): 1.56 µg/mL (≈ 6.86 µM)
MIC (H. pylori strains; strain YS-16): 0.39 µg/mL (≈ 1.72 µM)
antibacterial activity (in words) (Staphylococcus aureus): lost the antibacterial activity

O=c1c2ccccc2[se]n1CCCn1[se]c2ccccc2c1=O [EbSe 15]
Ki (E. coli TrxR [2]): 0.038 µM
IC50 (E. coli TrxR [2]): 2.1 µM
IC50 (HEK 293T cells; [5]): 9.5 µM

CCOC(=O)c1cccnc1[Se]Nc1ccc(Cl)cc1 [EbSe 22]
IC50 (E. coli TrxR [2]): > 10 µM
Ki (E. coli TrxR [2]; [6]): 7.5 µM

O=C(O)c1ccc(-n2[se]c3ccccc3c2=O)cc1 [EbSe 10]
IC50 (E. coli TrxR [2]): 15 µM
Ki for E. coli TrxR (E. coli TrxR [2]; [4]): Not detected
IC50 (recombinant rat TrxR): > 10 µM
Relative GPx activity [3]: 1.8
IC50 (HEK 293T cells; [5]): 55 µM

O=c1c2ccccc2[se]n1-c1ccncc1 [EbSe 13]
IC50 (E. coli TrxR [2]): 3 µM
Ki (E. coli TrxR [2]; [6]): 1.5 µM
IC50 (recombinant rat TrxR): > 10 µM
Relative GPx activity [3]: 1.4
MIC (Gor DHB4 E. coli): 24 µM (≈ 6.6 µg/mL)
MIC (gshA^− DHB4 E. coli): 21 µM (≈ 5.78 µg/mL)
IC50 (HEK 293T cells; [5]): 60 µM
MIC (wild type DHB4 E. coli): 45 µM (≈ 12.4 µg/mL)

O=c1c2ccccc2[se]n1CCn1[se]c2ccccc2c1=O [EbSe 14]
IC50 (E. coli TrxR [2]): 2 µM
Ki (E. coli TrxR [2]; [6]): 0.05 µM
MIC (Gor DHB4 E. coli): 19 µM (≈ 8.02 µg/mL)
sensitivity of gshA^− / gor^− strains compared with wild type (gshA^− DHB4 E. coli; E. coli strains wt, gshA^−, gor^−): same sensitivity
MIC (gshA^− DHB4 E. coli): 23 µM (≈ 9.71 µg/mL)
MIC (wild type DHB4 E. coli): 23 µM (≈ 9.71 µg/mL)

O=[N+]([O-])[O-].[Ag+] [silver, Silver nitrate]
MIC, silver alone (E. coli; 16 h): about 42 μM
MIC for silver (E. coli; in the presence of 2 μM ebselen, 16 h): 8.4 µM
silver concentration that inhibited E. coli growth (E. coli; in the presence of 8 μM ebselen, 16 h): 1 µM

CCOC(=O)c1cccnc1[Se]Nc1ccc(Cl)cn1 [compound 2]
IC50 (E. coli TrxR [2]): > 10 µM
Ki (E. coli TrxR [2]; [6]): 7.5 µM
MIC for Gor DHB4 E. coli (Gor DHB4 E. coli): No Inhibition
MIC for gshA^− DHB4 E. coli (gshA^− DHB4 E. coli): No Inhibition
IC50 (HEK 293T cells; Homo sapiens, HEK-293T, read-out: IG50 for HEK 293T): 60 µM
MIC for wild type DHB4 E. coli (wild type DHB4 E. coli): No Inhibition

NCCn1[se]c2ccccc2c1=O [EbSe5]
IC50 (E. coli TrxR [2]): 2.12 µM
Ki (E. coli TrxR [2]; [6]): 0.035 µM
